Assay results taken from publication PMC6385122, “Design and Synthesis of Arylamidine Derivatives as Serotonin/Norepinephrine Dual Reuptake Inhibitors” (Molecules, 2019).
Where a name gives a salt, the structure may show the parent alone.

Columns and labels:
rats = assay: Tail suspension test (TST) in rats; type: in vivo, rat; conditions: male rats, 30 mg/kg PO
Procedure: Based on the in vitro results, compounds I-19, II-4, and II-5 were selected for the tail suspension test (TST) in rats. The TST has been used widely as a preclinical model for screening antidepressant activity, and it is sensitive to commercially available antidepressant drugs. In the assay, rats are suspended by tail and the time that the animal is immobile is recorded. The compounds were administered to male rats at a dose of 30 mg/kg (PO). […] In addition, the safety profile of compound II-5 was also explored with a preliminary acute toxicity test in mice at a single dose of 200 or 400 mg/kg (PO) (n = 6).
For two days before the formal experiment, the rats in each group were given doses orally once a day in the morning and in the afternoon. The rats were given doses orally once in each group in the formal experiment. After 60 min of administration, the rats were suspended head-down more than 50 cm from the ground with a 12-cm-long piece of insulating tape at a distance of 1 cm from the tail tip. The distance between adjacent rats was 15 cm. The immobility time of the rats was recorded. The rate of change in the immobility time of the rats in the test drug group and the positive control group was calculated and compared with the negative control group. Statistical analysis was performed using Prism 7.0 (GraphPad Software, San Diego, CA, USA).

[1] = target: T1, NE reuptake (NE transporter) (Rattus norvegicus, UniProt Q63380); assay: Inhibition of NE reuptake in rat brain synaptosome (3H-NE uptake); type: biochemical
T1 construct: from tissue; host or cells: Wistar rat brain (procerebrum; crude synaptosomal supernatant)
Procedure: (§1) All the target compounds were evaluated for their inhibitory activity against the reuptake of 5-HT and NE at the cellular level. Rat brain tissue was used for the uptake test, which included ^3H-5-HT and ^3H-NE [15]. 1-[7,8-^3H]-Noradrenaline and 5-hydroxy-[^3H]-tryptamine trifluoroacetate were obtained from Amersham Corporation.
(§2) Adult male Wistar rats were used. Animals were killed by decapitation and the whole brain, with the exception of the brainstem and cerebellum, was quickly removed. The procerebrum region was prepared, weighed, and homogenized in 10 volumes of ice-cold 0.32 mol/L sucrose solution using a glass homogenizer. The homogenate was centrifuged at 1000× g and 4 °C for 10 min. The supernatant was decanted and used for the uptake experiments. […] For each assay, three tubes were incubated with the vehicle (20 µL) at 0 °C in an ice bath. After incubation, the tubes were immediately filtered with a cell harvester. The fiberglass filter membrane was washed three times with ice-cold saline, placed in a scintillation vial, and counted in liquid scintillation cocktail (4 mL). Active uptake was the difference between the counts per minute at 37 and 0 °C. The percent inhibition at each drug concentration was the mean of three measurements.

[2] = Preliminary acute toxicity test in mice; type: in vivo; conditions: male, ICR, mouse, in vivo; mice, PO, 20 h
Procedure: (§3) In the assay, rats are suspended by tail and the time that the animal is immobile is recorded. The compounds were administered to male rats at a dose of 30 mg/kg (PO).
(§4) Male ICR mice (20–25 g) were used from Institute of Materia Medica, Chinese Academy of Medical Sciences, Beijing, China. Mice were randomly divided into two groups with six mice each. Mice were orally given II-5 with a single dose 200 and 400 mg/kg or vehicle control, respectively. The mouse death was monitored for 20 h after treatment.

mice = assay: Preliminary acute toxicity test in mice; type: in vivo; conditions: male ICR mice, n = 6
Procedure: as §3, §4

[3] = target: T2, 5-HT reuptake (5-HT transporter) (Rattus norvegicus, UniProt P31652); assay: Inhibition of 5-HT reuptake in rat brain synaptosome (3H-5-HT uptake); type: biochemical
T2 construct: from tissue; host or cells: Wistar rat brain (procerebrum; crude synaptosomal supernatant)
Procedure: as §1, §2

T2 sequence (P31652 whole entry): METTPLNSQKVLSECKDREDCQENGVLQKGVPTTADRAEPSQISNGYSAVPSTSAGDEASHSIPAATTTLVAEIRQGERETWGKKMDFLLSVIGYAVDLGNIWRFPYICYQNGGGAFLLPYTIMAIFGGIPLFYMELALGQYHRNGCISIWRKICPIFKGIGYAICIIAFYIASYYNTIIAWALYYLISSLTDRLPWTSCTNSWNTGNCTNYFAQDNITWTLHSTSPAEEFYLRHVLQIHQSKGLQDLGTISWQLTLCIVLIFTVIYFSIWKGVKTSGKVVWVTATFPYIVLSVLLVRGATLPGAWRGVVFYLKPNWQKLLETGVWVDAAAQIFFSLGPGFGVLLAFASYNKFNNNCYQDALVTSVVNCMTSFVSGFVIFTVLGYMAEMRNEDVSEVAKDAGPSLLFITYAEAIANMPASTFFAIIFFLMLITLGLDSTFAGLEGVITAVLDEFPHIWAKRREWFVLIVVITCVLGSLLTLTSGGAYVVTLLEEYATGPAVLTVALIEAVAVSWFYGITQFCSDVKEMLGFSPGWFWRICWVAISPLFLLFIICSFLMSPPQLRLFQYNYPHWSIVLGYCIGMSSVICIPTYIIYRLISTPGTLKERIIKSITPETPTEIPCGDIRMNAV
T1 sequence (Q63380 1-617): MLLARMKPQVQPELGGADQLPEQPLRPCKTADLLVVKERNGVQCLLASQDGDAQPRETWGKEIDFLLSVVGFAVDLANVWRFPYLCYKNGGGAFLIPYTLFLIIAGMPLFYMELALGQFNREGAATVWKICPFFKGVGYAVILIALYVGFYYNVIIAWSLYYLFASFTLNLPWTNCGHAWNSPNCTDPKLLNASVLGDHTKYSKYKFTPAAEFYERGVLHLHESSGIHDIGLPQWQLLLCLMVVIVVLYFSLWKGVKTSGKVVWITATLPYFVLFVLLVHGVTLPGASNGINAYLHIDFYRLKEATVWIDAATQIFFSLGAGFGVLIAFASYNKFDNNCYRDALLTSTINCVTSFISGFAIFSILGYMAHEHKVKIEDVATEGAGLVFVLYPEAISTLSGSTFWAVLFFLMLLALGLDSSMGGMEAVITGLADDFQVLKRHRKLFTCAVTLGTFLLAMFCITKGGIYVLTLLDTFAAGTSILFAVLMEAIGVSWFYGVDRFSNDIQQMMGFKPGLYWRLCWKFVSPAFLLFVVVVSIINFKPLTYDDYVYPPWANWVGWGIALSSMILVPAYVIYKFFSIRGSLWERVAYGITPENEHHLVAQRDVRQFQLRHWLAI

Question: With `Clc1ccccc1/C(=N\Cc1cccc2ccccc12)N1CCNCC1` [II-5, (E)-N-((2-Chlorophenyl)(piperazin-1-yl)methylene)-1-(naphthalen-1-yl)methanaminehydrochloride] as the compound, how does the “Immobility Time” value (rats; 60 min after administration) read?
Answer: Its value is 18 ± 7 s.

Question: And the “Rate of Shorten Time (%)” value (rats; compared with the negative control group)?
Answer: The value was 67.8%.

Question: And the IC50 [1]?
Answer: The IC50 was 10 nM.

Question: And the inhibition at 10 µM ([1]; 10 μM, read-out: NE reuptake percent inhibition)?
Answer: Its inhibition at 10 µM is 92%.

Question: And the LD50 at 20 h [2]?
Answer: The LD50 at 20 h was over 400 mg/kg.

Question: What about the “Survival at 20 h” value (mice; single dose 200 mg/kg PO) of the same compound?
Answer: Its value is 100%.

Question: And the “Survival at 20 h” value (mice; single dose 400 mg/kg PO)?
Answer: The value was 100%.

Question: And the IC50 [3]?
Answer: The IC50 was 620 nM.

Question: What about the inhibition at 10 µM ([3]; 10 μM, read-out: 5-HT reuptake percent inhibition) of the same compound?
Answer: The inhibition at 10 µM was 81%.
